Source: patent publication US20190091198A1, “C[…] CANNABIS-BASED COMPOSITIONS AND METHODS FOR THE TREATMENT OF IN[…] THE GASTROINTESTINAL TRACT” (TO PHARMACEUTICALS LLC, priority 2016, published 2019)

Format: in vivo, human
Conditions: for maximal mean blood (serum) level: single sublingual dose of Avidekel oil, 4 drops (6.4 mg Δ9-THC and 26 mg CBD), N=7, LC-MS/MS
Protocol: Blood samples were withdrawn at time 0 and after administration of Avidekel oil extract, a sublingual dose 4 drops. Blood samples were withdrawn in intervals of 15, 30, 45, 60 and 90 min., and 2, 3, 4, 5, and 6 h., and stored at −70° C. until analysis at NMS Labs using LC-MS/MS.
FIG. 2A-2D show mean cannabinoid blood levels after administration of a single dose of Avidekel oil (6.4 mg Δ^9-THC and 26 mg CBD).

[1] = single dose of Avidekel oil (6.4 mg Δ9-THC and 26 mg CBD), N=7

Structure (SMILES)	mean blood level after the drop from the maximum (single dose of Avidekel oil (6.4 mg Δ9-THC and 26 mg CBD), N=7, within 6 h sampling period) [ng/mL]	maximal mean blood (serum) level [ng/mL]	mean blood level after 90 min [1] [ng/mL]	mean blood level reached during the 6 h period (still rising) [1] [ng/mL]	blood levels 6 h after administration [1]
CCCCCc1cc(O)c2c(c1)OC(C)(C)[C@@H]1CCC(CO)=C[C@@H]21 [11-Hydroxy Δ^9-THC]	1.9 ± 1.1	4.5 ± 4.2			
C=C(C)[C@@H]1CCC(C)=C[C@H]1c1c(O)cc(CCCCC)cc1O [CBD, 2-[(1R,6R)-6-isopropenyl-3-1-yl]-5-pentylbenzene-1,3-diol, reference compound]		6.2 ± 5.9			
CCCCCc1cc(O)c2c(c1)OC(C)(C)[C@@H]1CCC(C(=O)O)=C[C@@H]21 [Δ^9 Carboxy THC]			34.5 ± 47.7	75.5 ± 77.0	
CCCCCc1cc(O)c2c(c1)OC(C)(C)[C@@H]1CCC(C)=C[C@@H]21 [Δ^9-THC, (−)-(6aR,10aR)-6,6,9-Trimethyl-3-methylcyclohex-2-en-pentyl-6a,7,8,10α-tetrahydro-6H-benzo[c]chromen-1-ol, reference compound]		2.3 ± 2.2			typical to those after 24 hours of Cannabis washout
